In the NIST ThermoML archive (doi:10.1021/je800517r):
“And” between values parts separate entries of the source, which are not always exact repeats. Identical values can stand only once. Numbers after ± are expanded uncertainties.

Assay: activity coefficient (dimensionless); of the first substance listed, at infinite dilution; xn = mol fraction of the nth substance listed
Settings: Liquid, comparative ebulliometry, circulation still, and differential distillation method, x1 = 0

CC(=O)N(C)C [N,N-dimethylethanamide] + O
Settings	activity coefficient
343.15 K	1.27 ± 0.08
343.51 K	1.29 ± 0.08
349.03 K	1.46 ± 0.09
351.15 K	1.37 ± 0.08
353.5 K	1.72 and 1.79
363.87 K	2.06 and 2.24
370.86 K	2.12 ± 0.13
372.28 K	2.05 ± 0.12

CNC(C)=O [N-methylacetamide] + O
Settings	activity coefficient
333.15 K	1.7 ± 0.1
343.15 K	1.78 ± 0.11
353.15 K	1.82 ± 0.11

CNC=O [N-methylformamide] + O
Settings	activity coefficient
333.15 K	1.37 ± 0.08
343.15 K	1.42 ± 0.09
353.15 K	1.44 ± 0.09
372.65 K	1.65 ± 0.1

CN(C)C=O [dimethylformamide] + O
Settings	activity coefficient
343.73 K	1.23 ± 0.07
349.05 K	1.27 ± 0.08
353.45 K	1.3 ± 0.08
357.91 K	1.3 ± 0.08
358.5 K	1.36 ± 0.08
363.82 K	1.35 ± 0.08
368.38 K	1.59 ± 0.1
371.62 K	1.54 ± 0.09
372 K	1.66 ± 0.1
